Test results as given in ChEMBL document CHEMBL1158214, “Rollinecins A and B: two new bioactive annonaceous acetogenins from Rollinia mucosa” (J Nat Prod, 1996).
Converted amounts (≈) assume the structure as drawn.

Columns and labels:
A549 = assay: Cytotoxicity against human A549 cells; format: functional
HT-29 = assay: Cytotoxicity against human HT29 cells; format: functional; settings: read-out: ED50 (the source's name)
MIA PaCa-2 = assay: Cytotoxicity against human MIAPaCa2 cells; format: functional
PC-3 = assay: Cytotoxicity against human PC3 cells; format: functional
A498 = assay: Cytotoxicity against human A498 cells; format: functional
MCF7 = assay: Cytotoxicity against human MCF7 cells; format: functional; settings: read-out: ED50 (the source's name)
[1] = Toxicity in brine shrimp; format: organism-based; settings: artemia, in vivo

SMILES: COc1cccc2c1C(=O)c1c(O)c3c(c(O)c1C2=O)C[C@@](O)(C(=O)CO)C[C@@H]3O[C@H]1C[C@H](N)[C@H](O)[C@H](C)O1 [DOXORUBICIN]
- EC50 (A549; Homo sapiens, A549, read-out: ED50 (the source's name)): 0.00157 µg/mL (≈ 0.00289 µM)
- EC50 (HT-29): 0.0193 µg/mL (≈ 0.0355 µM)
- EC50 (MIA PaCa-2; Homo sapiens, MIA PaCa-2, read-out: ED50 (the source's name)): 0.0224 µg/mL (≈ 0.0412 µM)
- EC50 (PC-3; Homo sapiens, PC-3, read-out: ED50 (the source's name)): 0.0281 µg/mL (≈ 0.0517 µM)
- EC50 (A498; Homo sapiens, A498, read-out: ED50 (the source's name)): 0.0019 µg/mL (≈ 0.0035 µM)
- EC50 (MCF7): 0.0968 µg/mL (≈ 0.178 µM)

SMILES: CCCCCCCCCCCC[C@H](O)[C@H]1CC[C@H]([C@H](O)CC[C@@H](O)CCCCCCCCC[C@@H](O)CC2=C[C@H](C)OC2=O)O1 [ROLLINECIN B]
- ED50 (A549): 4.23 ×10⁻⁴ ug/ml
- EC50 (HT-29): 1.44 µg/mL (≈ 2.3 µM)
- ED50 (MIA PaCa-2): 2.53 ×10⁻⁴ ug/ml
- ED50 (PC-3): 3.62 ×10⁻⁴ ug/ml
- ED50 (A498): 2.29 ×10⁻⁴ ug/ml
- LC50 [1]: 0.13 µg/mL (≈ 0.208 µM)
- EC50 (MCF7): 2.72 µg/mL (≈ 4.35 µM)

SMILES: CCCCCCCCCCCC[C@H](O)[C@H]1CC[C@H]([C@H](O)CC[C@H](O)CCCCCCCCC[C@@H](O)CC2=C[C@H](C)OC2=O)O1 [ROLLINECIN A]
- ED50 (A549): 1.14 ×10⁻⁴ ug/ml
- EC50 (HT-29): 1.6 µg/mL (≈ 2.56 µM)
- ED50 (MIA PaCa-2): 3.47 ×10⁻⁵ ug/ml
- ED50 (PC-3): 2.62 ×10⁻⁴ ug/ml
- ED50 (A498): 7.25 ×10⁻⁴ ug/ml
- LC50 [1]: 0.31 µg/mL (≈ 0.496 µM)
- EC50 (MCF7): 1.44 µg/mL (≈ 2.3 µM)
